Some test systems named below: P388/ADR leukemia; XF 498 CNS; SN12K1 renal; P388 leukemia; DLD-1 colon; MDA-MB-231 breast; MDA-N; BT-549 breast.
Test in all cases: NCI tumour cell line growth inhibition, 48 h

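96-well plates; 48 h exposure; 5 concentrations. Endpoints by linear interpolation between flanking doses. Not reached: highest tested concentration assigned. GI50 = concentration required for 50% inhibition of growth. TGI: total growth inhibition.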

With `CC(=O)OC1CCC2(C)C3CCC4(C)C(c5ccc(=O)oc5)CC5OC54C3CCC2(O)C1` (stereo not drawn), the TGI in the experiment with P388/ADR leukemia is more than 200 µM; in the experiment on XF 498 CNS, 6.97 µM; in the experiment on SN12K1 renal it was 3.7 µM; in the experiment with P388 leukemia, more than 200 µM; in the experiment on DLD-1 colon, 1.57 µM.
As to `CC(=O)Oc1cccc2c(/C=N/NC(N)=S)ncc(C)c12`, the TGI in the experiment with MDA-MB-231 breast turned out to be 25.8 µM; in the experiment with MDA-N it was 21 µM; in the experiment with BT-549 breast, 12.3 µM.
`CC1CC=CC(O)C1` (stereo not drawn): the TGI in the experiment with P388/ADR leukemia, in the experiment with XF 498 CNS, with SN12K1 renal, in the experiment on P388 leukemia and in the experiment with DLD-1 colon was more than 100 µM in each case.
Take `NC(CCCCP(=O)(O)O)C(=O)O` (stereo not drawn): the TGI with MDA-MB-231 breast, with MDA-N and in the experiment with BT-549 breast was more than 100 µM each time.
`CCC[CH2][Ge]([CH2]CCC)([CH2]CCC)[O]C(=O)CC(=O)c1ccccc1`: the figures for the GI50 in the experiment with XF 498 CNS and in the experiment with DLD-1 colon were 11.6 µM and 0.77 µM, respectively. Also, the values for the TGI in the experiment on XF 498 CNS and in the experiment with DLD-1 colon were 23.8 µM and 16 µM, respectively.
For the compound `NNC(N)Nc1ccccc1` (stereo not drawn), the TGI with MDA-MB-231 breast, in the experiment on MDA-N and in the experiment on BT-549 breast was more than 100 µM in each case.
Regarding `NCCCNc1nc2ccccc2c2c(=O)c3cc(OC(F)(F)F)ccc3sc12`, in the experiment with MDA-MB-231 breast, the GI50 is 1.26 µM and the TGI was 2.6 µM. Further, in the experiment with BT-549 breast, the GI50 is 10.7 µM and the TGI was 32.6 µM.
Regarding `C=CC(Br)(CBr)CCC(Cl)C(C)C` (stereo not drawn), the TGI in the experiment on MDA-MB-231 breast worked out at 2.79 µM; in the experiment on MDA-N, 2.8 µM; in the experiment with BT-549 breast it was 2.96 µM.
Take `Cc1ccc(S(=O)(=O)Oc2cc(-c3ccccc3)nc3ccccc23)cc1`: the TGI is 12.6 µM in the experiment on P388/ADR leukemia; 24.3 µM in the experiment on XF 498 CNS; 4.25 µM with SN12K1 renal; 3.12 µM in the experiment on P388 leukemia; more than 46.8 µM in the experiment on DLD-1 colon.
As to `O=C(OC(=O)n1ccc2ccccc21)n1ccc2ccccc21`, the TGI with XF 498 CNS, in the experiment with SN12K1 renal and with DLD-1 colon was more than 100 µM throughout.

The values above are taken from PubChem BioAssay (NCI).
